In patent US20250302799A1, “PHARMACEUTICAL COMPOSITION CONTAINING FRAXETIN FOR PREVENTION OR TREATMENT OF ENDOMETRIOSIS” (Research & Business Foundation Sungkyunkwan University, priority 2024, published 2025):

How the values were obtained:
VK2/E6E7 cells [1] = assay: Mitochondrial calcium concentration (rhod-2 staining); format: cell-based, human
Description: (§1) To examine intracellular or mitochondrial calcium concentration changes in endometrial cells induced by fraxetin, the inventors conducted experiments using 3 μM fluo-4 acetoxymethyl ester (AM) (Invitrogen) and 3 μM rhod-2.
(§2) First, cells were cultured in 6-well plates, treated with fraxetin in a dose-dependent manner (0 μM, 5 μM, 10 μM, 20 μM, 50 μM, 100 μM), and incubated at 37° C. in a 5% CO2 incubator for 48 hours. The cells were then detached using trypsin, washed with PBS, and stained with 3 μM fluo-4 or 3 μM rhod-2 for 20 minutes at 37° C. in a 5% CO2 incubator. After staining, the cells were washed with PBS, transferred to FACS tubes, and analyzed by flow cytometry to measure intracellular or mitochondrial calcium concentrations.

End1/E6E7 cells [2] = assay: as above; format: cell-based, human
Description: as §1, §2

VK2/E6E7 cells [3] = assay: Mitochondrial respiration (XF Cell Mitostress kit); format: cell-based, human
Description: (§3) To confirm the effects of fraxetin on mitochondrial respiration in endometrial cells, the inventors used an XF Cell Mitostress kit.
(§4) In brief, endometrial cells were seeded in 24-well plates and cultured at 37° C. in a 5% CO2 incubator for 16 hours, followed by treatment with […]. Subsequently, various mitochondrial respiration parameters were measured by sequential treatment with oligomycin, FCCP, rotenone, and antimycin A in the two cell lines.

End1/E6E7 cells [4] = assay: Mitochondrial respiration (XF Cell Mitostress kit); format: cell-based, human
Description: as §3, §4

VK2/E6E7 cells [5] = assay: ROS generation by DCFH-DA flow cytometry; format: cell-based, human
Description: (§5) To assess the inhibitory effect of fraxetin on ROS generation in endometrial cells, the inventors used flow cytometry to measure ROS levels. In brief, endometriosis cells were stained with DCFH-DA (final concentration 10 μM) for 30 minutes and treated with 50 μM fraxetin in experimental groups, with or without 2 mM N-acetylcysteine (NAC; Cat No. A0737, Sigma), in a 37° C. incubator. Afterward, the cells were washed with PBS, and ROS levels were detected by measuring fluorescence DCF via flow cytometry.

End1/E6E7 cells [6] = assay: ROS generation by DCFH-DA flow cytometry; format: cell-based, human
Description: as §5

endometriotic lesions = assay: Endometriosis animal model, lesion size and histology; format: in vivo, C57/BL6 mice; conditions: fraxetin 30mg/kg orally for four weeks
Description: Seven-week-old female C57/BL6 mice were purchased from DBL (Eumseong, South Korea). After a 7-day acclimation period, they were subcutaneously injected with 2 mg/50 μL of progesterone two days before surgery. After anesthetizing the mice, the […] was excised and autografted onto the peritoneum to induce endometriosis. After culturing for two weeks, the mice were randomly assigned to groups and administered either a vehicle as the control, fraxetin at 30mg/kg, or dienogest at 1 mg/kg orally for four weeks.
For histological analysis, tissues were lesion prepared as paraffin blocks and sectioned onto slides. Hematoxylin-eosin (H&E) staining was performed using Mayer's hemalum solution and a Prussian Blue staining kit (Cat. Ab150674, Abcam) histological analysis and for immunohistochemistry. Immunohistochemistry was conducted using an avidin-biotin complex kit (Cat. PK-4001, Vector Laboratories).

[7] = tested on: normal endometrial stromal cell line T-HESC; assay: BrdU cell proliferation assay, normal cells; format: cell-based, human; conditions: 48 hours
Description: To examine the effects of fraxetin on cell proliferation, the inventors performed a BrdU cell proliferation assay.
First, 5×10^3 cells of VK2/E6E7, End1/E6E7, and T-HESC were each distributed in 100 μL of medium in 96-well plates.
Fraxetin was then administered in a dose-dependent manner (0μM, 5 μM, 10 μM, 20 uM, 50 μM, 100 uM) and cultured for 48 hours, followed by the BrdU assay using a BrdU kit (Cat No: 1167229001, Roche) according to the manufacturer's instructions.
After 48 hours of incubation, 10 μM BrdU (Bromodeoxyuridine) was added to each well and incubated at 37° C. in a 5% CO2 incubator for 2 hours. The cells were then fixed, reacted with anti-BrdU-POD solution at room temperature for 90 minutes, and washed three times. Finally, 100 μL of 3, 3′, 5, 5′-tetramethylbenzidine substrate was added, and absorbance was measured at wavelengths of 370 nm and 492 nm to analyze cell proliferation.

End1/E6E7 cells [8] = assay: Mitochondrial membrane potential by JC-1 staining; format: cell-based, human; conditions: End1/E6E7
Description: To examine changes in mitochondrial membrane potential (MMP) in endometrial cells induced by fraxetin, the inventors used a mitochondria staining kit (Cat no: CS0390, Sigma-Aldrich) to measure MMP.
In brief, End1/E6E7 and […] endometrial cell lines were cultured in 6-well plates, treated with fraxetin in a dose-dependent manner (0 μM, 5 μM, 10 μM, 20 μM, 50 μM, 100 μM), and incubated at 37° C. in a 5% CO2 incubator for 48 hours. Afterward, the cells were detached using trypsin, centrifuged to obtain cell pellets, resuspended in JC-1 staining solution, and incubated at 37° C. in a 5% CO2 incubator for 20 minutes. The stained cells were centrifuged again, washed with 1X JC-1 staining buffer, and analyzed using flow cytometry to assess changes in mitochondrial membrane potential.

VK2/E6E7 cells [9] = assay: Icam1/Vcam1 expression in endometriosis cell line; format: cell-based, human
Description: (§6) The endometrial cell lines VK2/E6E7, End1/E6E7, and normal endometrial stromal cell line T-HESC were purchased from ATCC. The cells were cultured in keratinocyte serum-free medium or DMEM/F12 1:1 medium containing 10% FBS for monolayer culture. Endometrial cell lines (VK2/E6E7,End1/E6E7) and normal cells were cultured at 37° C. in a 5% CO2 incubator.

End1/E6E7 cells [10] = assay: Icam1/Vcam1 expression in endometriosis cell line; format: cell-based, human
Description: as §6

## COc1cc2ccc(=O)oc2c(O)c1O [fraxetin]
VK2/E6E7 cells [1]; 20 μM fraxetin, second value, VK2/E6E7 assumed
  mitochondrial calcium ion levels: 2.4 fold
VK2/E6E7 cells [1]; 50 μM fraxetin
  mitochondrial calcium ion levels: slight increase
End1/E6E7 cells [2]; 20 μM fraxetin, first value, End1/E6E7 assumed
  mitochondrial calcium ion levels: 1.7 fold
End1/E6E7 cells [2]; 50 μM fraxetin
  mitochondrial calcium ion levels: slight increase
VK2/E6E7 cells [3]
  ATP production: decreased
  basal respiration: decreased
End1/E6E7 cells [4]
  ATP production: significantly decreased
  basal respiration: significantly decreased
  maximal respiration: significantly decreased
  reserve respiratory capacity compared to control: halved
VK2/E6E7 cells [5]; VK2/E6E7, Example 7 comparison fraxetin vs dienogest
  relative ROS generation: > 200%
VK2/E6E7 cells [5]; VK2/E6E7, fraxetin-treated
  ROS generation compared to control: up to 1.5 fold
End1/E6E7 cells [6]; End1/E6E7, Example 7 comparison fraxetin vs dienogest
  relative ROS generation: over 150%
End1/E6E7 cells [6]; End1/E6E7, fraxetin-treated
  ROS generation compared to control: up to 1.5 fold
Endometriotic lesions
  immune cell infiltration (tissue after iron staining): increase
Endometriotic lesions; vs vehicle control
  size of endometriotic lesions: significantly reduced
[7]
  cell proliferation in normal endometrial cells: no changes
End1/E6E7 cells [8]
  relative membrane potential loss rate increase: 1.8 fold
VK2/E6E7 cells [9]
  expression levels of Icam1 and Vcam1: significant decrease
End1/E6E7 cells [10]
  expression levels of Icam1 and Vcam1: significant decrease
